Assay results taken from ChEMBL document CHEMBL1148281, “Carbonic anhydrase inhibitors: synthesis and topical intraocular pressure lowering effects of fluorine-containing inhibitors devoid of enhanced reactivity” (J Med Chem, 2004).

Assays:
[1] = target: T1, Carbonic anhydrase 4 (Bos taurus, UniProt Q95323)
T1 sequence (Q95323 whole entry): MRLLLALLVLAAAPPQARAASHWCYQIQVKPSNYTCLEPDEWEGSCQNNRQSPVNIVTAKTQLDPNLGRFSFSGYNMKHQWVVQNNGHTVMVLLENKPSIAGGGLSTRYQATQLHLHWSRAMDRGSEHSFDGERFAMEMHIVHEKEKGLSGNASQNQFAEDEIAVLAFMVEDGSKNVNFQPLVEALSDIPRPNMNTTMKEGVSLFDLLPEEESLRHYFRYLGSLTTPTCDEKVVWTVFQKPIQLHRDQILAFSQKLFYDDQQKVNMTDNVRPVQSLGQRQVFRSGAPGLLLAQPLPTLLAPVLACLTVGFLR
Description: In vitro inhibitory activity against bovine carbonic anhydrase IV (CAIV)

[2] = target: Carbonic anhydrase 1 (Homo sapiens, UniProt P00915)
Description: In vitro inhibitory activity against human carbonic anhydrase I (hCAI)

[3] = target: Carbonic anhydrase 2 (Homo sapiens, UniProt P00918)
Description: In vitro inhibitory activity against human carbonic anhydrase II (hCAII)

[4] = Reactivity against cysteine after 24 hours of incubation; format: functional
[5] = Reactivity against glutathione after 24 hours of incubation; format: functional

Chain of Carbonic anhydrase 1 (P00915 whole entry): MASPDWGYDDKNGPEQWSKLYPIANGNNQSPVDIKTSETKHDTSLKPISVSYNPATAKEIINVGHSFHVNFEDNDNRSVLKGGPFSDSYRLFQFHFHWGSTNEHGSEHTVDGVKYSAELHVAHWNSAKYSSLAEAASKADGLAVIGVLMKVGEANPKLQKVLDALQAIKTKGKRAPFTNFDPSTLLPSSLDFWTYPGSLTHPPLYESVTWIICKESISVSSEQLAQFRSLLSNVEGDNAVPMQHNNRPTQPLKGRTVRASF

Row | SMILES | Ki [1] [nM] | Ki [2] [nM] | Ki [3] [nM] | Reactivity [4] [%] | Reactivity [5] [%]
1 | NS(=O)(=O)c1ccc(CNC(=O)Nc2c(F)c(F)c(F)c(F)c2F)cc1 | 50 | 1000 | 15 | – | –
2 | NS(=O)(=O)c1ccc(Nc2ccnc(NS(=O)(=O)c3c(F)c(F)cc(F)c3F)n2)cc1 | 21 | 320 | 13 | – | –
3 | NS(=O)(=O)c1ccccc1NC(=O)Nc1c(F)c(F)c(F)c(F)c1F | 485 | 1750 | 44 | – | –
4 | NS(=O)(=O)c1ccc(CNC(=O)c2c(F)c(F)cc(F)c2F)cc1 | 120 | – | – | – | –
5 | NS(=O)(=O)c1ccc(NS(=O)(=O)c2ccc(NC(=O)c3c(F)c(F)cc(F)c3F)cc2)cc1 | 63 | – | – | – | –
6 | COc1ccc(NS(=O)(=O)c2c(F)c(F)c(F)c(F)c2F)cc1 | – | – | – | 98 | 96
7 | NS(=O)(=O)c1nnc(NC(=O)c2c(F)c(F)cc(F)c2F)s1 | 24 | – | – | – | –
8 | NS(=O)(=O)c1nnc(NS(=O)(=O)c2c(F)c(F)cc(F)c2F)s1 | 15 | – | – | 0 | 0
9 | NS(=O)(=O)c1ccc(NS(=O)(=O)c2c(F)c(F)cc(F)c2F)cc1 | 330 | 1300 | 25 | – | –
10 | NS(=O)(=O)c1ccc(CCNS(=O)(=O)c2c(F)c(F)cc(F)c2F)cc1 | 76 | – | – | – | –
11 | NS(=O)(=O)c1ccc(CNS(=O)(=O)c2c(F)c(F)cc(F)c2F)cc1 | 135 | – | – | – | –
12 | NS(=O)(=O)c1nnc(NS(=O)(=O)c2c(F)c(F)c(F)c(F)c2F)s1 | – | – | – | 76 | 68
13 | NS(=O)(=O)c1ccc(CCNS(=O)(=O)c2ccc(NC(=O)c3c(F)c(F)cc(F)c3F)cc2)cc1 | 49 | – | – | – | –
14 | NS(=O)(=O)c1ccc(NS(=O)(=O)c2c(F)c(F)cc(F)c2F)c(F)c1 | 42 | 580 | 3.8 | – | –
15 | NS(=O)(=O)c1ccc(NC(=O)c2c(F)c(F)c(F)c(F)c2F)c(F)c1 | – | – | – | 55 | 49
16 | NS(=O)(=O)c1ccc(NC(=O)Nc2c(F)c(F)c(F)c(F)c2F)c(Br)c1 | 360 | 1960 | 95 | – | –
17 | NS(=O)(=O)c1nnc(NC(=O)Nc2c(F)c(F)c(F)c(F)c2F)s1 | 45 | 270 | 3.6 | – | –
18 | NS(=O)(=O)c1cccc(NC(=O)c2c(F)c(F)cc(F)c2F)c1 | 430 | – | – | – | –

More lines, in order of falling Ki [1], values ahead:

Row | Ki [1] [nM] | Ki [2] [nM] | Ki [3] [nM] | SMILES | Reactivity [4] [%] | Reactivity [5] [%]
19 | 690 | – | – | NS(=O)(=O)c1ccccc1NC(=O)c1c(F)c(F)cc(F)c1F | – | –
20 | 430 | – | – | NS(=O)(=O)c1cccc(NC(=O)Nc2c(F)c(F)c(F)c(F)c2F)c1 | – | –
21 | 400 | – | – | NS(=O)(=O)c1ccc(NC(=O)c2c(F)c(F)cc(F)c2F)cc1 | – | –
22 | 245 | 1300 | 80 | NS(=O)(=O)c1ccc(NC(=O)Nc2c(F)c(F)c(F)c(F)c2F)c(Cl)c1 | – | –
23 | 94 | – | – | NS(=O)(=O)c1ccc(CCNC(=O)c2c(F)c(F)cc(F)c2F)cc1 | – | –
24 | 63 | 760 | 18 | NS(=O)(=O)c1ccc(NC(=O)Nc2c(F)c(F)c(F)c(F)c2F)c(F)c1 | – | –
25 | 58 | 740 | 16 | NS(=O)(=O)c1cc(S(N)(=O)=O)c(NC(=O)Nc2c(F)c(F)c(F)c(F)c2F)cc1Cl | – | –
26 | 54 | – | – | NS(=O)(=O)c1ccc(CNS(=O)(=O)c2ccc(NC(=O)c3c(F)c(F)cc(F)c3F)cc2)cc1 | – | –
27 | 50 | – | – | NS(=O)(=O)c1ccc(NC(=O)c2c(F)c(F)cc(F)c2F)c(Br)c1 | – | –
28 | 49 | 930 | 61 | NS(=O)(=O)c1ccc(NS(=O)(=O)c2c(F)c(F)cc(F)c2F)c(Cl)c1 | – | –
29 | 42 | – | – | NS(=O)(=O)c1ccc(NC(=O)c2c(F)c(F)cc(F)c2F)c(Cl)c1 | – | –
30 | 41 | 940 | 15 | NS(=O)(=O)c1ccc(CCNC(=O)Nc2c(F)c(F)c(F)c(F)c2F)cc1 | – | –
31 | 31 | – | – | NS(=O)(=O)c1ccc(NC(=O)c2c(F)c(F)cc(F)c2F)c(F)c1 | 0 | 0
32 | 28 | 270 | 1.4 | Cn1nc(S(N)(=O)=O)s/c1=N/C(=O)c1c(F)c(F)cc(F)c1F | – | –
33 | 21 | – | – | NS(=O)(=O)c1ccc(NC(=O)Nc2c(F)c(F)c(F)c(F)c2F)cc1 | 0 | 0
